# Experimental data reported in ChEMBL document CHEMBL4351025, “Indole-nitroimidazole conjugates as efficient manipulators to decrease the genes expression of methicillin-resistant Staphylococcus aureus” (Eur J Med Chem, 2019).
# Tests used:
# Format in all cases: functional
# Staphylococcus aureus [1] = assay: Antibacterial activity against methicillin-resistant Staphylococcus aureus N315 incubated for 24 hrs by two fold serial dilution method; details: N315, 24 h
# Escherichia coli = assay: Antibacterial activity against Escherichia coli incubated for 24 hrs by two fold serial dilution method
# Klebsiella pneumoniae = assay: Antibacterial activity against Klebsiella pneumoniae incubated for 24 hrs by two fold serial dilution method
# Acinetobacter baumannii = assay: Antibacterial activity against Acinetobacter baumannii incubated for 24 hrs by two fold serial dilution method
# Enterococcus faecalis = assay: Antibacterial activity against Enterococcus faecalis incubated for 24 hrs by two fold serial dilution method
# Staphylococcus aureus [2] = assay: Antibacterial activity against Staphylococcus aureus ATCC 29213 incubated for 24 hrs by two fold serial dilution method; details: ATCC 29213, 24 h
# Pseudomonas aeruginosa = assay: Antibacterial activity against Pseudomonas aeruginosa incubated for 24 hrs by two fold serial dilution method
SMILES,MIC (Staphylococcus aureus [1]) [µg/mL],MIC (Escherichia coli) [µg/mL],MIC (Klebsiella pneumoniae) [µg/mL],MIC (Acinetobacter baumannii) [µg/mL],MIC (Enterococcus faecalis) [µg/mL],MIC (Staphylococcus aureus [2]) [µg/mL],MIC (Pseudomonas aeruginosa) [µg/mL]
CC(=O)Cn1cc(/C=C(/C(C)=O)n2cc([N+](=O)[O-])nc2C)c2ccccc21,0.5,8,2,128,16,256,512
C=CCn1cc(/C=C(/C(C)=O)n2cc([N+](=O)[O-])nc2C)c2ccccc21,32,32,32,16,64,4,16
CC(=O)/C(=C/c1cn(CC(=O)N(C)c2ccccc2)c2ccccc12)n1cc([N+](=O)[O-])nc1C,1,32,32,128,64,128,128
CC(=O)/C(=C/c1cn(CC(=O)N(C2CCCCC2)C2CCCCC2)c2ccccc12)n1cc([N+](=O)[O-])nc1C,2,32,8,512,128,512,512
CCN(CC)C(=O)Cn1cc(/C=C(/C(C)=O)n2cc([N+](=O)[O-])nc2C)c2ccc(Cl)cc21,512,512,512,512,1,512,128
